How the values were obtained:
[1] = tested on: CD4 T cell; assay: Viability, morphology and expansion of peptide-treated CD4 T cells; type: cell-based; conditions: 25 μM peptide
From the text: Peptides were designed overlapping the OCA-B surface responsible for Jmjd1a binding, and were synthesized as Tat-fusions for membrane permeability (FIG. 3A). […] Treated cells show no changes in viability, morphology or expansion (not shown). Peptide #2 was used for subsequent experiments.

[2] = tested on: primary CD4 T cells; assay: Il2 and Ifng expression in restimulated primary CD4 T cells (RT-qPCR); type: cell-based
Experimental: (§1) FIGS. 3A-D show OCA-B inhibitors and results using these peptides in primary CD4 T cells and in a NOD mouse model. […] Peptides #2 (SEQ ID NO: 2) and #3 (SEQ ID NO: 3) show efficacy. Arrows indicate position of mutant in FIG. 2C. Below: Il2 expression in primary CD4 T cells treated with 25 μM peptide #2 measured by RT-qPCR. […] In these animals, most pancreatic beta function is lost, and the diabetes arises from autoimmune inflammation (insulitis) in the pancreas, making the remaining beta cells nonfunctional.
Disclosed herein are methods that can be carried out to determine the efficacy of one or more peptides for their ability to block the interaction of OCA-B and Jmjd1a or Oct1. In some aspects, the method can be, for low-throughput studies, treating primary human or mouse CD4 T cells that have been previously stimulated and rested in culture with the test peptide (10-50 μM), and re-stimulating cells with CD3/CD28 antibodies in the presence of inhibitor. Efficacy can be determined by suppression of e.g., Il2 gene expression in T cells receiving a second stimulation, phenocopying the OCA-B germline deficient mouse (as shown in FIG. 3A). […]

[3] = tested on: female NOD mice; assay: NOD mouse model of newly manifested type 1 diabetes; type: in vivo; conditions: for pancreatic T cell infiltration (total numbers and percentages): flow cytometry; for pancreatic T cell infiltration (total numbers and percentages) / elevated blood glucose: 12 hr after final injection; for elevated blood glucose: female 14-18 week-old NOD mice, glucose newly risen above 225 mg/dL, three intravenous injections of 20 mg/kg spaced by 12 hr
Experimental: as §1
Blood collection occurred prior to 2nd injection and 12 hr after final injection. […] Il2 gene expression was measured by TaqMan RT-qPCR. […] FIGS. 9D and E show similar analysis conducted using pancreatic lymph nodes (PLNs).
The peptide was synthesized and purified for an in vivo experiment. T1D onset in NOD mice is spontaneous and acute, allowing the administration of the peptide as symptoms arise. Female 14-18 week-old NOD mice whose glucose levels were newly-risen above 225 mg/dL but were still below 275 mg/dL were treated with three intravenous injections of 20 mg/kg peptide or Tat-only peptide control. The peptide half-life in serum was predicted to be ˜5 hr, and therefore the injections were spaced by 12 hr. Twelve hours after the final injection, blood glucose was collected and flow cytometry performed on the pancreas and pancreatic lymph nodes (PLNs). Strikingly, the inhibitor reversed elevated blood glucose (FIG. 3B; also see, FIG. 9), pancreatic T cell infiltration (both total numbers and percentages, FIG. 3C and not shown; also see, FIG. 9) and pro-inflammatory IFNγ and IL-17A cytokine production (not shown). Control peptide at the same concentration had no effect. […] OCA-B levels in B cells are at least 50-fold higher than in T cells (Immgen), making it likely that the observed effects are due to competitive inhibition in T cells. […] This peptide was used as a proto-drug to assess function and possible side effects.

[4] = NOD mice, three intravenous injections of 20 mg/kg, pancreas
[5] = NOD mice, three intravenous injections of 20 mg/kg, PLNs

| Substance | changes in viability, morphology or expansion of treated cells [1] | Il2 and Ifng expression following CD4 T cell restimulation ([2]; 25 μM peptide, Tat-fusion, compared with OCA-B null phenotype) | efficacy (Il2 expression in primary CD4 T cells) ([2]; peptides synthesized as Tat fusions, FIG. 3A) | pro-inflammatory IFNγ and IL-17A cytokine production [3, 4] | pancreatic T cell infiltration (total numbers and percentages) [3, 4] | T1D progression / emergence ([3]; NOD mouse model, three injections, short time interval) | elevated blood glucose [3] | T cell numbers or percentages in pancreatic lymph nodes (PLNs) [3, 5] | pro-inflammatory cytokine production in pancreatic lymph nodes (PLNs) [3, 5] |
| --- | --- | --- | --- | --- | --- | --- | --- | --- | --- |
| ARPYQGVRVKEPVKELLRRKRGH [Peptide #3, OCA-B fragment synthesized as Tat fusion] | no changes | phenocopies the OCA-B null phenotype | show efficacy |  |  |  |  |  |  |
| GRKKRRQRRRGY [Tat-only peptide control, reference compound] |  |  |  | no effect | no effect | progress | no effect |  |  |
| VKELLRRKRGH-GSG(linker)-GRKKRRQRRRGY(Tat) (VKELLRRKRGHGSGGRKKRRQRRRGY) [SEQ ID NO: 10, OCA-B/Jmjd1a interface peptide fused to Tat peptide through a GSG linker] |  |  |  |  | reduction |  | strong efficacy | unaffected | unaffected |
